Experimental data taken from patent publication US20240327493A1 (GEORGE MASON UNIVERSITY, priority 2023, published 2024).
Entries after “also recorded” stand apart in the source; their conditions may differ. Blank lines part the entries; values can stand above or below the molecule they belong to. Where a SMILES comes first, the peptide text is derived from it. Bridges are numbered along the chain shown (N, C = ends). Where no end group is shown, it is not given here.

Columns and labels:
[1] = biological target: T1, PD-1/PD-L1 complex (Homo sapiens, UniProt Q15116); experiment: AlphaScreen (PD-1/PD-L1 AlphaLISA binding kit), PD-1/PD-L1 complex formation; conditions: for Residual Activity: AlphaScreen PD-1/PD-L1 complex formation; for Blocking of PD-1/PD-L1 complex formation: AlphaScreen, result in words
T1 construct: purchased PerkinElmer AL356HV
T1 sequence (Q15116 25-170 limits assumed, one chain of several): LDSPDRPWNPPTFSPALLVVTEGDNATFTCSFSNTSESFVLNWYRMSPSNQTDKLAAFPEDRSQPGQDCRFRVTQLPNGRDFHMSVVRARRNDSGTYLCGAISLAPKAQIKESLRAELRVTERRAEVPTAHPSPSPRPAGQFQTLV
Procedure: Peptides were screened using the PerkinElmer PD-1/PD-L1 (human) AlphaLISA Binding Kit (Waltham, MA, USA, Cat. No. AL356HV) according to the manufacturer's instructions. […] Briefly, peptides were resuspended in assay buffer with 4% dimethyl sulfoxide (DMSO) to make 4× stock solutions of 400 μM. […] Lastly, the 4× mixture of anti-His Acceptor beads and streptavidin Donor beads were prepared in the dark. […] The plate was incubated in the dark for 90 minutes at room temperature and luminescence was measured using a Tecan Spark multimode plate reader (Männedorf, Switzerland). For data analysis, a control with beads alone was subtracted from each well for background correction. Data analysis was conducted using GraphPad Prism version 9 (La Jolla, CA, USA).

[2] = human serum diluted 1:4 in RPMI, ESI-MS, 0, 6, 24, 48 hours
Procedure: Angiotensin I was spiked in and used for normalization.
Human serum was diluted 1:4 in Gibco RPMI 1640 media (ThermoFisher Scientific, Waltham, MA, USA, Cat. No. 11-875-093) for a total of 1 mL and incubated at 37° C. for 15 minutes prior to time course. Next, 1 μL of the peptide stock was added to warmed serum for a final concentration of […] in the master mix. The rest of the time course was performed at room temperature. For each time point, aliquots of 100 μL were removed from the master mix and added to 200 μL of 3% trifluoroacetic acid. Samples were incubated on ice for 15 minutes before centrifugation at 16,000×g for 2.5 minutes. Supernatants were transferred to a clean tube and prepared for desalting via C18 column by adding 100 μL of sample buffer (20% acetonitrile, 2% trifluoroacetic acid) to supernatants before storage at—20° C. overnight. Samples were then processed through Pierce C18 spin columns (ThermoFisher Scientific, Cat. No. 89870) according to the manufacturer's instructions. […]
For ESI-MS analysis, serum stability samples were run on an Orbitrap Exploris 480 (ThermoFisher Scientific). […] ThermoFisher's Xcalibur 4.0 Data System was used for peptide quantification. […] The samples were batch reprocessed for quantification via peak area. Peptide abundances were normalized based on Angiotensin I abundance and quantified relative to initial abundance.

[3] = Human serum was diluted 1:4 in Gibco RPMI 1640 media; conditions: room temperature (serum incubated at 37° C. for 15 minutes prior to time course); for fragment found: up to 6 hours
[4] = tested on: human PBMCs co-cultured with OVCAR8 cells; experiment: Co-culture of OVCAR8 cells and stimulated human PBMCs, 1:10 OVCAR8:PBMC ratio; type: cell-based; conditions: for Immunosuppressive effect (reduction in TNFα/cytokines) compared with controls rPD-L1 and MN_Null: 1:10 OVCAR8:PBMC co-culture, FIG. 10D
Procedure: For this model, PBMCs and cancer cells were both stimulated prior to co-culture to promote expression of PD-1 and PD-L1, respectively.
OVCAR8 cells, generously provided by the Gottesman Lab (National Institutes of Health, Bethesda, MD, USA), and MDA-MB-231 cells (American Type Culture Collection, Rockville, MD, USA) were cultured in Gibco RPMI 1640 media (ThermoFisher Scientific, Cat. No. 11-875-093) supplemented with 10% Gibco fetal bovine serum (ThermoFisher Scientific, Cat. No. 10437028), and 1% penicillin/streptomycin (10,000 U/mL pen, 10 mg/mL strcp) from MilliporeSigma (Burlington, MA, USA, Cat. No. P4333). Cells were cultured at 37° C. and 5% CO2. Passage number was kept below 3 for co-culture assay. Human peripheral blood mononuclear cells were purchased frozen from […] PBMCs were thawed according to manufacturer's instructions one day before co-culture and cultured in the same media and conditions as cancer cell lines.
The next day, cells were stimulated with 100 ng/mL IFNγ and two vials of human PBMCs were thawed. On Day 3, concentrations of PBMCs and OVCAR8 cells (harvested from a control well) were measured using the QuadCount Automated Cell Counter. The concentration of PBMCs required for a 1:10 OVCAR8:PBMC ratio was calculated from the OVCAR8 concentration. PBMCs were plated on a separate 24-well plate (1 mL/well) and stimulated with 5 μg/mL of anti-CD3 and 5 μg/mL of anti-CD28 for 30 minutes before drug treatment. […] After 30 minutes, media was removed from OVCAR8 wells without treatment, and replaced with 1 mL of treated PBMCs. After 24 hours, the supernatants were collected from each well, and centrifuged at 10,000×g for 5 minutes to remove any remaining cells.
Briefly, samples from co-culture experiments with excess OVCAR8 ratios were diluted 1:10 in assay buffer, and samples from co-culture experiments with excess PBMC ratios were diluted 1:5 in assay buffer. Next, 10 μL of the diluted samples were mixed with 10 μL of an IL-2 antibody-oligonucleotide conjugate mixture and added to a 96-well working plate. Samples with excess OVCAR8 ratios were allowed to incubate overnight at 4° C. Samples with excess PBMCs were allowed to incubate for 1 hour at room temperature. Next, 80 μL of qPCR reaction mixture containing master mix and DNA ligase was added to each well. The plate was centrifuged at 2,500×g for 2 minutes. Samples were then added in triplicate (20 μL/well) to a 96-well PCR plate (ThermoFisher Scientific). PCR was run according to manufacturer's instructions using the QuantStudio 7 Pro Real-Time PCR System equipped with a 96-well, 0.2 mL block from ThermoFisher Scientific.
Remaining samples from experiments with excess PBMC ratios were analyzed using TNFα (Cat. No. 430204) ELISA MAX Deluxe Sets (BioLegend, San Diego, CA, USA) according to manufacturer's instructions. Briefly, 96-well Nunc™ MaxiSorp™ ELISA Plates (BioLegend, Cat. No. 423501) were coated with capture antibodies for TNFα and incubated overnight at 4° C. The next day, the plate was washed 4× with 1×PBS+0.05% Tween-20 (PBS-T). To block non-specific binding, 200 μL of assay dilutant buffer was added to each well and the plate was incubated at room temperature for 1 hour on a shaker. The plate was washed as before, and 100 μL of the samples or standards were added to each well in triplicate and incubated at room temperature for 2 hours on a shaker. The plate was washed 4× and 100 μL of detection antibody for TNFα was added to each well, and the plate was incubated at room temperature for 1 hour on a shaker. The plate was washed 4× and 100 μL of Avidin-HRP was added to each well, and the plate was incubated at room temperature for 30 minutes on a shaker.

[5] = biological target: T2, biotinylated PD-1 of the PerkinElmer PD-1/PD-L1 (human) AlphaLISA Binding Kit (human, UniProt Q15116 25-167, limits assumed, biotinylated (site not stated)); experiment: AlphaScreen (PerkinElmer PD-1/PD-L1 human AlphaLISA binding kit): peptide titrated against biotinylated PD-1 and His-tagged PD-L1; readout percent PD-1/PD-L1 binding
T2 construct: Bought kit reagent
T2 sequence (Q15116 25-167 limits assumed): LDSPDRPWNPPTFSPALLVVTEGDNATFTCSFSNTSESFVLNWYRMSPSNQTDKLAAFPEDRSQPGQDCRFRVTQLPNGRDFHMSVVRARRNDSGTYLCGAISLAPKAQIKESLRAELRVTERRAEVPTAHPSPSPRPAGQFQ
Procedure: (§1) Briefly, peptides were resuspended in assay buffer with 4% dimethyl sulfoxide (DMSO) to make 4× stock solutions of 400 μM. […] Lastly, the 4× mixture of anti-His Acceptor beads and streptavidin Donor beads were prepared in the dark. Peptides were then added in duplicates of 10 μL to a white 96-well ½-AreaPlate (PerkinElmer, Cat. No. 6005560) at 7 different concentrations from 1 nM to 100 μM. […] The plate was incubated in the dark for 90 minutes at room temperature and luminescence was measured using a Tecan Spark multimode plate reader (Männedorf, Switzerland). For data analysis, a control with beads alone was subtracted from each well for background correction. Data analysis was conducted using GraphPad Prism version 9 (La Jolla, CA, USA).

[6] = biological target: T2, biotinylated PD-1 of the PerkinElmer …; experiment: AlphaScreen (PerkinElmer PD-1/PD-L1 human AlphaLISA binding kit): peptide titrated against biotinylated PD-1 and His-tagged PD-L1; readout percent activity (PD-1/PD-L1 complex formation)
Procedure: as §1

Residual Activity [1]: 62.87%
Molecule: CRALIAYKGADYKRIC (disulfide 1-16) [SEQ ID NO. 8]

Residual Activity [1]: 45.77%
Molecule: CRAMISYKGADYKRIC (disulfide 1-16) [SEQ ID NO. 7]

Residual Activity [1]: 82.74% | Blocking of PD-1/PD-L1 complex formation [1]: lost activity
Molecule: CRAXISYGGADYKXIC (norleucine at position 4; SITE 4 Nle; DISULFID 1..16 Intra chain disulphide formation; SITE 14 N-methyl arginine) [SEQ ID NO. 6]
Blocking of PD-1/PD-L1 complex formation ([1]; listed as MN1.5): abolished the ability of MN1.1 to block PD-1/PD-L1 complex formation

fragment found [3]: oxidized MN1.4 | not cleaved ([3]; up to 48 hours): not significantly degraded at 48 hours
Molecule: NH3-CRAMISYGGADYK-(N-Me-Arg)-IC—COOH

The next lines start with the molecule.

Molecule: CC[C@H](C)[C@@H]1NC(=O)[C@H](CCSC)NC(=O)[C@H](C)NC(=O)[C@H](CCCNC(=N)N)NC(=O)[C@H](Cc2ccc(O)cc2)NC(=O)[C@@H](N)CSSC[C@@H](C(=O)O)NC(=O)[C@H](C(C)C)NC(=O)[C@H]([C@@H](C)O)NC(=O)[C@H]([C@@H](C)CC)NC(=O)[C@H](CCCNC(=N)N)NC(=O)[C@H](CCCCN)NC(=O)[C@H](Cc2ccc(O)cc2)NC(=O)[C@H](CC(=O)O)NC(=O)[C@H](C)NC(=O)CNC(=O)CNC(=O)[C@H](Cc2ccc(O)cc2)NC(=O)[C@H](CO)NC1=O [SEQ ID NO. 4] (H-CYRAMISYGGADYKRITVC-OH; disulfide 1-19)
IC50 [1]: < 10 µM | Degradation in serum [2]: present at very low levels after 48 hours

Molecule: Pembrolizumab [reference compound]
TNFα levels ([4]; 1:10 OVCAR8:PBMC, 24 hours, ELISA, vs untreated co-culture control, FIG. 10C): did not have this effect | IL-2 levels ([4]; 1:10 OVCAR8:PBMC, 24 hours, vs untreated co-culture control, FIG. 10B): did not have this effect

Molecule: YRCMISNGGADYKRITV (Ac-YRCMISNGGADYKRITV-NH2) [SEQ ID NO. 3]
Blocking of PD-1/PD-L1 complex formation [1]: mutation of Y7 is tolerated

Molecule: YRCMISYGGADEKRITV [SEQ ID NO. 14]
Immunosuppressive effect (reduction in TNFα/cytokines) compared with controls rPD-L1 and MN_Null ([4]; listed as MN-Null): did not show a significant reduction | Immunosuppressive effect (reduction in TNFα/cytokines) compared with controls rPD-L1 and MN_Null ([4]; listed as MN_Null): less immunosuppressive activity as compared to MN1.4; also recorded: little immunosuppressive effect

Molecule: YRCMISYGGADYKRITV
fragment found [3]: cysteinylated peptide, major, 15 minutes; also recorded: oxidized MN 1.1, minor, time 0

B1: MN 2.1 (peptide)
peptide: Ac-YRCMISNGGADYKRITV-NH2
modifications: not fully specified
notes: the text speaks of Y7Q for the computation
IC50 [5]: 17.4 µM

B2: MN4.2 (peptide)
peptide: CRALIAYKGADYKRIC
modifications: disulfide 1-16
IC50 (read off the curve) [6]: ~10 µM

B3: MN 3.2 (peptide)
peptide: CRAMISYKGADYKRIC
modifications: disulfide 1-16
IC50 (read off the curve) [6]: ~10 µM
